Measurements from ChEMBL document CHEMBL3507680, “University of Dundee, Gates Library screen for HepG2 cell viability”.

Test: Human HepG2 cell viability assay in 384 well format
Format: toxicity, cell-based
Set-up: dose 125 nL, time 70.5 hour; cytotoxicity at 70.5 h: concentration not given beside the values
Settings: HepG2 cells, read-out: Inhibition

Structure (SMILES) | cytotoxicity at 70.5 h [%]
CCOC(=O)C1(Cc2cccc(OC)c2)CCN(Cc2ccon2)CC1 | -11.6
Cc1ccc(-c2cc(-c3nc(CN4CCN(C)CC4)no3)[nH]n2)s1 | -10.5
C[C@@H]1CN(C(=O)CSc2nncn2C)C[C@@]1(O)C1CC1 | -4.21
Cc1cc(C(=O)N2CC[C@@]3(O)CCN(S(C)(=O)=O)C[C@H]3C2)c(C)n1C | 18.6
CC(C)c1nccn1Cc1cc(C(=O)NCC(C)n2ccnc2)n[nH]1 (configuration not stated) | -6.98
Cc1ccc(C(C(=O)NCCN2CCC(CO)CC2)N(C)C)cc1 (configuration not stated) | 27.1
CCn1cc(CN(C)c2nc(C)c3ccc(S(C)(=O)=O)cc3n2)cn1 | -5.64
COCCN(Cc1ccncc1)C(=O)CCSCc1ccc(F)cc1 | 20
CC(C(=O)N(C)C)N1CCc2onc(-c3cccc(F)c3)c2C1 (configuration not stated) | -5.12
C=C(C)COc1cccc(C(=O)N(C)C(C)c2c(C)n[nH]c2C)c1 (configuration not stated) | -4.42
COc1cnc(N2CCN(C)CC2)nc1-c1ccnn1C | -6.6
CN(CCc1cnn(C)c1)C(=O)CN1C(=O)OC[C@@H]1c1ccccc1 | -5.22
Cc1cc(C)nc(CCNc2nccc(CCC(F)(F)F)n2)n1 | 8.35
Cc1cccc2[nH]c(C3CCCN(Cc4ccc(CO)o4)C3)nc12 (configuration not stated) | 4.96
CC(C)[C@@H]1CN(C(=O)C2(c3ccccc3)CCN(C)CC2)C[C@H]1N(C)C | 9.05
CC(C)CN1CC(C(=O)NCCc2c[nH]cn2)CC1=O (configuration not stated) | -0.927
CC(=O)NCC1CCCN(Cc2nc(Cc3ccccc3F)no2)C1 (configuration not stated) | 0.817
COc1cc2c(cc1-c1nc3c(cnn3C(C)C)[nH]1)OCO2 | -0.0981
CC(C)c1cc(NCc2csc(C(C)C)n2)nc(N)n1 | 24.3
CC(C)(O)c1cn(C2CCN(C(=O)CCc3ccncc3)CC2)nn1 | -4.73
Cc1[nH]c2ccccc2c1CCNc1ncnc2c1CCNCC2 | 0.111
O=c1cnc2ccccc2n1CCCn1cccn1 | 24.6
CCN1CC(C(=O)N2CC(Oc3ccccc3Cl)C2)CC1=O (configuration not stated) | -1.71

Structure (SMILES) | cytotoxicity at 70.5 h [%]
Cc1cnc(NCCCN2CCCCC2CO)nc1 (configuration not stated) | -1.85
CCC(CO)N(Cc1ccsc1)CC1CC1 (configuration not stated) | -4.03
Cc1nc[nH]c1CNCc1cccnc1N(C)C1CCCCC1 | -6
NS(=O)(=O)c1ccc(F)c(C(=O)NCCSC2CCCCC2)c1 | -9.09
O=C(c1cnc2c(c1)CCC2)N1CCCC(CO)(CC2CC2)C1 (configuration not stated) | -9.59
O=C(c1cnc(COc2ccccc2)nc1O)N1CCC(F)(F)CC1 | -5.82
Cc1nc(N(C)C)ncc1C(=O)NCCCn1nccc1C1CC1 | 6.49
O=C(CN1CCCC1c1nc(-c2ccccn2)no1)N1CCOCC1 (configuration not stated) | -7.89
CCN(C)Cc1n[nH]c(=O)n1-c1ccc(C)c(C)c1 | -11.7
O=C(CN1CCC2(CCCN(CCO)C2=O)C1)NCCc1ccccc1 (configuration not stated) | 11.6
CCN(CCOC)C(=O)CCc1scnc1C | -2.82
CN(Cc1ccc2nsnc2c1)CC1(O)CNCCOC1 (configuration not stated) | -6.32
Nc1ccc(C(=O)N2CCC(Oc3cccc(C(F)(F)F)c3)CC2)cn1 | -0.861
COCCN1CC(c2nc(CSC)no2)CCC1=O (configuration not stated) | 2.97
N#Cc1ccc(Oc2cc(F)c(CN3CCCC3)c(F)c2)nc1 | -2.2
CC(C)[C@H]1CN(S(C)(=O)=O)C[C@@H]1NC(=O)c1ccnc(N)c1 | -1.08
COCc1noc(-c2ccc(N3CCC[C@H]3CO)nc2)n1 | -7.06
Nc1cc(-c2cc[nH]n2)nc(N2CCCC2)n1 | 5.5
Cc1ncsc1CCN(C)C(=O)CN1C(=O)OC[C@@H]1c1ccccc1 | 4.46
O=C1CCCCCN1CCc1nc(-c2cccnn2)no1 | -6.78
CN1CCN(c2cccc(NC(=O)NCc3csc(N(C)C)n3)c2)C1=O | 35.3
CC1c2cccn2CCN1C(=O)CCc1nc(-c2ccccc2)no1 (configuration not stated) | -5.32
CC(C)Cc1ncc2c(n1)CN(c1nccc(NC(C)C)n1)C2 | 2.52

Structure (SMILES) | cytotoxicity at 70.5 h [%]
CNc1ncccc1C(=O)N1CCN(C)C2(CCN(C)CC2)C1 | -7.09
Cc1ccc(CSc2nc(N)cc(NCCS(=O)(=O)N(C)C)n2)cc1 | -2.68
CCCc1cc(C(=O)N(C)Cc2ccc(OC)c3ncccc23)n(C)n1 | 2
O[C@H]1Cc2ccccc2[C@H]1n1ccnc1-c1cc2n(n1)CCNC2 | -2.39
COCCN1C[C@H]2CC[C@@H]1CN(C(=O)CCn1cc(Cl)cn1)C2 | -10.6
Cc1ccc2nc(C(=O)N3C[C@@H](C(=O)O)[C@H](c4cccnc4)C3)cn2c1 | -5.46
N[C@H]1CN(C(=O)c2ccccc2OCCc2ccccc2)C[C@@H]1C1CC1 | -8.08
CCn1cnnc1Cn1cccc(C(F)(F)F)c1=O | 4.98
CCc1cnc(C)nc1NC(CC)c1cnn(C)c1 (configuration not stated) | -2.39
O=C(O)[C@@H]1CN(C(=O)c2ccc3[nH]nnc3c2)C[C@H]1c1ccccc1 | -4.96
CC(C)N1CCCC(C(=O)N2CCN(c3cccc(C(=O)O)c3)CC2)C1 (configuration not stated) | 23.2
O[C@@H]1CN(c2nc3ccccc3o2)CC[C@H]1c1ccc2c(c1)OCO2 | 14.9
CN1CCCCCC1C(=O)N1CCN(c2ccccc2C#N)CC1 (configuration not stated) | -8.6
N#Cc1cccc(NC(=O)N2CCC3(CCC(=O)N(C4CC4)C3)CC2)c1 | -2.97
CCCN1CCC(N2CCC(Cn3cc(C4CC4)nn3)CC2)CC1 | -8.35
Nc1nc2c(c(N3CCOCC3)n1)CCN(C(=O)c1ccc[nH]1)CC2 | -7.85
CCCc1nnc(N2CCCC(c3nnc(Cn4ccnc4)n3C)C2)s1 (configuration not stated) | -2.6
Cc1nc(CNc2nc3c(s2)c(C)nn3C)cs1 | -8.75
O=C(NCCc1cc(=O)[nH]cn1)c1[nH]nc2c1CCCC2 | -5.79
COCC(=O)N[C@H]1C[C@@H](C(=O)NCCc2cccc(Cl)c2)N(C)C1 | -13.3
CCn1c(C2CCN(C(=O)CCc3cc(Cl)no3)CC2)nn(C)c1=O | -6.98
CN1C(=O)c2ccc(C(=O)N(Cc3cnn(C)c3)C3CC3)cc2C1=O | -16.5
O=C(NC1CCOCC1)C1CC(=O)N(Cc2ccccn2)C1 (configuration not stated) | -2.88

Structure (SMILES) | cytotoxicity at 70.5 h [%]
O=C(CSc1ccccc1)N1CCc2c(ncnc2N2CCOCC2)C1 | 0.558
CC(C)n1cnnc1Cn1c(=O)cnc2ccccc21 | -4.23
Cc1nc[nH]c1-c1nccn1CCN1CCOC1=O | -8.03
COc1nc(C)c(C(=O)NCc2cc(N3CCOCC3)ncn2)s1 | -2.68
CC1=C(C(=O)NCc2cccnc2-n2cnc3ccccc32)OCCO1 | -0.825
Cc1cccc(C(C(=O)NCC2(O)CCCCC2)N(C)C)c1 (configuration not stated) | 14.2
CCCc1nc(CN(CC)C(=O)c2ccc(OC)c(OC)c2)no1 | 25.6
CC(C)(C)CN1CCC(c2nnc(Cn3ccnc3)n2C2CC2)CC1 | -3.87
CCC[C@H]1CN(c2nc(CO)cs2)C[C@@H]1NC(=O)C1CCC1 | -5.73
Cc1ccccc1CC1(CO)CCCN(c2ncnc3sccc23)C1 (configuration not stated) | 31.4
COc1ccc2nc(CCNC(=O)c3cc(CC(C)C)no3)[nH]c2c1 | -15.4
CC(=O)NCC1CCC2(CCN(c3ncc(C(C)=O)c(C)n3)CC2)O1 (configuration not stated) | -2.5
Cc1nc(NCC(O)CN2CCCCCC2)c2c(C)nn(C)c2n1 (configuration not stated) | -8.64
Cc1nc(NC(=O)N2CCCC(C(F)(F)F)C2)nn1C (configuration not stated) | -8
CN(C)CCN(C)C1CCN(C(C(=O)O)c2ccc(F)c(Cl)c2)CC1 (configuration not stated) | 5.36
Cc1nc(N)ncc1C(=O)N1CCCC(CCc2ccc(F)c(F)c2)C1 (configuration not stated) | -16.6
O=S1(=O)C[C@@H]2[C@H](C1)N(Cc1ncc[nH]1)CCN2CCCc1ccccc1 | -1.68
CCOCCn1c(=O)n(Cc2ccc(F)cc2)c2ncc(C(=O)O)cc21 | -4.53
COC(C)(C)CC(C)NCc1cn2ccccc2n1 (configuration not stated) | -16.8
CCc1n[nH]c(C(=O)N2CCC3(CCCN(CCOC)C3=O)C2)c1C (configuration not stated) | -9.48
COc1cc2nc(NCCNS(C)(=O)=O)cc(C)c2cc1OC | -0.473
COc1ccc(OC)c(C2CCN(c3ccc4cc[nH]c4n3)C2)c1 (configuration not stated) | -6.46
CCC(C)N(Cc1cccnc1)Cc1cc2c(cc1Cl)OCO2 (configuration not stated) | -1.59

Structure (SMILES) | cytotoxicity at 70.5 h [%]
O=C(c1cnc(-c2cccnc2)nc1)N1CCSCC1 | 21.6
CC(C)c1noc(Cn2ncn3cccc3c2=O)n1 | -6.57
O=C1CC[C@H]2CN(c3ncc(F)cn3)CC[C@H]2N1CCc1c[nH]cn1 | -8.52
CN(Cc1nccn1C)c1ccc(-c2nccn2C)nn1 | 18.2
COc1ccc(C(=O)C2CCCN(c3cnccn3)C2)c(C)c1 (configuration not stated) | -8.1
CC(C)C(=O)N1CCC(c2nc3c([nH]2)CCCNC3=O)CC1 | -6.35
CSCc1noc(CN(C)C(C)c2nc(C)sc2C)n1 (configuration not stated) | 6.01
CCOc1ccnc(N[C@@H](Cc2ccccc2)C(N)=O)n1 | -6.36
CCCC(=O)N1CCCC(Cn2cc(-c3ccc(F)cc3)nn2)C1 (configuration not stated) | -11.1
O=C(c1ncccc1O)N1CCc2c(ncnc2N2CCOCC2)C1 | -4.02
CC(Cc1cccnc1)Nc1ncnc2cccc(F)c12 (configuration not stated) | 1.44
Cc1cc2ccccc2n1CCC(=O)N1CCC[C@H]1C(N)=O | -6.97
Cc1nn(C)cc1Cn1c(=O)c(C)nc2ccccc21 | -6.18
O=c1[nH]nc(CNCc2ccc(OC34CCCN(CC3)C4)cc2)[nH]1 (configuration not stated) | -4.91
CCCSCC(=O)N1CCCC2(CCC(=O)N(CCc3c[nH]cn3)C2)C1 (configuration not stated) | -5.03
NC1CCN(S(=O)(=O)c2ccc(C(=O)N3CCSCC3)cc2)C1 (configuration not stated) | -9.37
Cc1ccc(C)c2c(C)c(C(=O)NCCCn3cnnc3)[nH]c12 | -6.86
CNC(=O)C1CCN(Cc2nc(-c3ccc(SC)cc3)oc2C)C1 (configuration not stated) | -6.93
OCCOc1ccccc1CN1CCCC(O)(CO)C1 (configuration not stated) | 9.78
CSCC[C@@H](CO)Nc1ccc(-c2nc(-c3ccccc3C)no2)cn1 | -6.4
